Patent publication US5429766A, “Detergent composition containing alkaline pullylanase enzyme” (Kao Corporation, priority 1990, dated 1995)

Assays:
Assay type in all cases: biochemical
[1] = tested on: alkaline pullulanase A from Bacillus sp. KSM-AP 1876 (FERM BP-3049); assay: Effects of chelating agents on pullulanase activity of alkaline pullulanase A; details: substrate pullulan
Protocol: (§1) 0.1 ml of enzyme solution was added to 0.9 ml of a substrate solution consisting of a buffer solution and pullulan (final concentration in the reaction system was 0.25%), and the mixture was reacted at 40° C. for 30 minutes. After the reaction, reducing sugar was quantitatively determined by a method of the 3,5-dinitrosalicylic acid (DNS).
(§2) Specifically, 1.0 ml of DNS reagent was added to 1.0 ml of reaction mixture, and the mixture was heated at 100° C. for 5 minutes to develop color. After cooling, the mixture was diluted by adding 4.0 ml of deionized water. This solution was subjected to colorimetric quantitative analysis at a wave length of 535 nm. One unit (1U) of enzyme activity was defined as the amount of enzyme which released 1 μmol of reducing sugar (as glucose) per minute.

[2] = tested on: alkaline pullulanase B (having α-amylase activity) from Bacillus sp. KSM-AP 1378 (FERM BP-3048), pullulanase activity; assay: Effects of chelating agents on pullulanase activity of alkaline pullulanase B; details: for Effect of chelating agent on pullulanase activity: chelating agent 10 mM; for Residual activity (%), Pullulanase activity: compound 10 mM, no addition = 100
Protocol: as §1, §2
Same procedures were followed as mentioned in the section of alkaline pullulanase A.
The α-amylase activity which had been adversely affected by chelating agents can be restored by the addition of Ca^2+ ions as shown in Table 3.

[3] = tested on: alkaline pullulanase B (having α-amylase activity) from Bacillus sp. KSM-AP 1378 (FERM BP-3048), α-amylase activity; assay: Effects of chelating agents on α-amylase activity of alkaline pullulanase B
Protocol: as §2, with “0.1 ml of enzyme solution was added to 0.9 ml of a substrate solution consisting of a buffer solution and soluble starch (final concentration in the reaction system was 0.25%), and the mixture was reacted at 50° C. for 15 minutes. After the reaction, reducing sugar was quantitatively determined by means of a DNS method. Specifically,” for “Specifically,”, “at” for “at a”

Compound	Effect of chelating agent on pullulanase activity ([1]; chelating agent 10 mM)	Effect of chelating agent on pullulanase activity [2]	Residual activity (%), Pullulanase activity [2] [%]	Effect of chelating agent on α-amylase activity ([3]; chelating agent 10 mM, restored by addition of Ca2+ ions)	Residual activity (%), α-Amylase activity, when Ca2+ ions were added again ([3]; compound 10 mM, then Ca2+ ions added again (values in parentheses)) [%]	Residual activity (%), α-Amylase activity ([3]; compound 10 mM, no addition = 100) [%]	Effect of chelating agent on pullulanase activity ([1]; chelating agent 0.05% by weight)
O=C(O)CN(CCN(CC(=O)O)CC(=O)O)CC(=O)O [EDTA]	almost no adverse effects	almost no adverse effect	77				
O=C(O)CN(CCOCCOCCN(CC(=O)O)CC(=O)O)CC(=O)O [EGTA]	almost no adverse effects	almost no adverse effect	65	adversely affected significantly	91	18	
O=C(O)CC(O)(CC(=O)O)C(=O)O [citric acid]							almost no adverse effects
